The source of these data is ChEMBL document CHEMBL5465560, “Selectivity Literature for EUbOPEN Chemogenomic Library” (2024).

The target in series [1] is Tyrosine-protein kinase Lck (Homo sapiens, UniProt P06239). Description: Selectivity interaction (ProQinase) EUB0000171b LCK.
Series [2] has as its target Serine/threonine-protein kinase SIK2 (Homo sapiens) (UniProt Q9H0K1). The series is described as follows: Selectivity interaction (ProQinase) EUB0000171b SIK2.
Series [3] has as its target Serine/threonine-protein kinase/endoribonuclease IRE1 (Homo sapiens) (UniProt O75460). The series is described as follows: Selectivity interaction (KinomeScan (DiscoverX)) EUB0001079a ERN1. The conditions noted are these: at 1 µM.
In series [4] the target is aryl hydrocarbon receptor (AHR) (Homo sapiens, UniProt P35869). The series is described as follows: Selectivity interaction (Panel of kinases, GPCRs, ion channels and transporters (enzymatic assay)) EUB0000223bCl AHR.
aryl hydrocarbon receptor (AHR), sequence (P35869 whole entry): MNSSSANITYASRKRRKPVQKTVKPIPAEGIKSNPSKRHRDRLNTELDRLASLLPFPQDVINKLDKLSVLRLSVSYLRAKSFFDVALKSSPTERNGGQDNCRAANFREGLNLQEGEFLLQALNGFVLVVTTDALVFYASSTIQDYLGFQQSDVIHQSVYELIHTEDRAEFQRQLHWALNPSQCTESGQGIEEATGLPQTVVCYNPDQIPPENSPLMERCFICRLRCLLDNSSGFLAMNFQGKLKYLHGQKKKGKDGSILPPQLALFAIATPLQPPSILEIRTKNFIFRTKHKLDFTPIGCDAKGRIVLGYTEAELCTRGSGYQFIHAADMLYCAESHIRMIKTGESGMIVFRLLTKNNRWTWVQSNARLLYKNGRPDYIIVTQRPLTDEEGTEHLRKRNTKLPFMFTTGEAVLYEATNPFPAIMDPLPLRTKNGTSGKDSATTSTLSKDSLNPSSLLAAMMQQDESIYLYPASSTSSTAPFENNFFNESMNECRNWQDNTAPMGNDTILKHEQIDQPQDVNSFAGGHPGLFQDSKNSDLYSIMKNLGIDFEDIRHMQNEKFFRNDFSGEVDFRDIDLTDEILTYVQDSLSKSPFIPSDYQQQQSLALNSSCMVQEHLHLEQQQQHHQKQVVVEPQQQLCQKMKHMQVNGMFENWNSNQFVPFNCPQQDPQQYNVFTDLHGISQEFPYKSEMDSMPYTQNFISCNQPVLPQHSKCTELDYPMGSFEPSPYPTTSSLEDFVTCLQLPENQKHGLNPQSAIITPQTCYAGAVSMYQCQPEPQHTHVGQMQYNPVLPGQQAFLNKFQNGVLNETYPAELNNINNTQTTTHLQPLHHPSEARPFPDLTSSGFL
The target in series [5] is Histamine H2 receptor (Homo sapiens) (UniProt P25021). The series is described as follows: Selectivity interaction (Eurofins CEREP Diversity Profile (receptors and ion channels)) EUB0000279b HRH2. The conditions noted are these: at 10 µM.
Histamine H2 receptor (Homo sapiens), sequence (P25021 whole entry): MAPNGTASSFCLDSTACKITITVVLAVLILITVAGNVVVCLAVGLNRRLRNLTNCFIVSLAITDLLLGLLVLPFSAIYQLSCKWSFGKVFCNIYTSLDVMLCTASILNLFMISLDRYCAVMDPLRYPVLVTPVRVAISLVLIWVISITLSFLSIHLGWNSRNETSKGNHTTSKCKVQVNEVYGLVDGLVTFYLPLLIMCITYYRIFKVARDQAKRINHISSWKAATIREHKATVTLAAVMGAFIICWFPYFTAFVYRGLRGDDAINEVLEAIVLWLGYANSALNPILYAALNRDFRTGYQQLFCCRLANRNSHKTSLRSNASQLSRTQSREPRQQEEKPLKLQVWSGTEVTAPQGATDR
For series [6], the system named is Tyrosine-protein kinase ABL1 (Homo sapiens), P00519 [H396P]. The series is described as follows: Selectivity interaction (KinomeScan (DiscoverX)) EUB0000666a ABL1. As to conditions: at 10 µM.
In series [7] the target is Serine/threonine-protein kinase WNK3 (Homo sapiens) (UniProt Q9BYP7). Description: Selectivity interaction (KinomeScan (DiscoverX)) EUB0000666a WNK3. As to conditions: at 10 µM.
For series [8], the target named is T1, cGMP-dependent protein kinase 2 (Homo sapiens) (UniProt Q13237).
T1 sequence (whole entry): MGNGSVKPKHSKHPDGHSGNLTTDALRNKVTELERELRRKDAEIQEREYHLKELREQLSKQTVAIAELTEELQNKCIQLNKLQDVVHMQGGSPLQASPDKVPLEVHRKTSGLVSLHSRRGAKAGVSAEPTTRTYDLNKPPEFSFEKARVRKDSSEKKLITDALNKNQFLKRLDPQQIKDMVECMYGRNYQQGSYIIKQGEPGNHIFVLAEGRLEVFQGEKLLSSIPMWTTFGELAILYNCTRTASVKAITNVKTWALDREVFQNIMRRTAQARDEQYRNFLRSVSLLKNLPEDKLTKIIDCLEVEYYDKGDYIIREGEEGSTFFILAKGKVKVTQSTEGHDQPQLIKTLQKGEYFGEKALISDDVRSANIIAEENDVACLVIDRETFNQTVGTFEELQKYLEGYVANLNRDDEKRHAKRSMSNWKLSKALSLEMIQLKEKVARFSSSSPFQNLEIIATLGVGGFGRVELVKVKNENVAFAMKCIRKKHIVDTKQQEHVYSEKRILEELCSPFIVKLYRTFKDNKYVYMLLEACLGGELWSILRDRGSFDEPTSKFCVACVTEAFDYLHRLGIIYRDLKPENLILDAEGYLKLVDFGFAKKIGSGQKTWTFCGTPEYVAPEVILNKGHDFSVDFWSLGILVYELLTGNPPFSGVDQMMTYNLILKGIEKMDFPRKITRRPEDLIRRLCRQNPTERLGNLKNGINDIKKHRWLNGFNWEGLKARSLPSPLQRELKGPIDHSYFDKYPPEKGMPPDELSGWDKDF
Description: Selectivity interaction (Kinase panel (Z-LYTE Assay)) EUB0001632a PRKG2. As to conditions: at 10 µM.

Series [9] deals with Cyclin-dependent kinase 8 (Homo sapiens, UniProt P49336). The series is described as follows: Selectivity interaction (ActivX KiNativ screen (kinase selectivity in THP-1 cell lysates)) EUB0000639a CDK8. It is filed as subcellular. As to conditions: lysate.
Cyclin-dependent kinase 8, sequence (P49336 whole entry): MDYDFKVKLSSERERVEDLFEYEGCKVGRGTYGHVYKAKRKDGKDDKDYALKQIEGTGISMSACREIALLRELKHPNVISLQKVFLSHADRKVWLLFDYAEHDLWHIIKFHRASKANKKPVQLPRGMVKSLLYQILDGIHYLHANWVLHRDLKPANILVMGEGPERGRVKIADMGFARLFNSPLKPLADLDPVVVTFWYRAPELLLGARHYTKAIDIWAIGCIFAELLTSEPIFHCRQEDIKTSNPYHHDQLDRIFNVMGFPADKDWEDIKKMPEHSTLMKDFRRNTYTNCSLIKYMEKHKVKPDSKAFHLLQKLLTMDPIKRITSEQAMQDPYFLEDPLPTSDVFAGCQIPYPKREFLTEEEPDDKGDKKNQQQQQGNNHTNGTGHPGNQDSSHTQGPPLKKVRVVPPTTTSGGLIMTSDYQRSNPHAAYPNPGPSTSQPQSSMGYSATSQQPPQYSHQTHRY
Series [10] deals with Serine/threonine-protein kinase 25 (Homo sapiens) (UniProt O00506). Description: Selectivity interaction (KinomeScan (DiscoverX)) EUB0000229b STK25. As to conditions: at 10 µM.
Serine/threonine-protein kinase 25 (Homo sapiens), sequence (O00506 whole entry, looked up): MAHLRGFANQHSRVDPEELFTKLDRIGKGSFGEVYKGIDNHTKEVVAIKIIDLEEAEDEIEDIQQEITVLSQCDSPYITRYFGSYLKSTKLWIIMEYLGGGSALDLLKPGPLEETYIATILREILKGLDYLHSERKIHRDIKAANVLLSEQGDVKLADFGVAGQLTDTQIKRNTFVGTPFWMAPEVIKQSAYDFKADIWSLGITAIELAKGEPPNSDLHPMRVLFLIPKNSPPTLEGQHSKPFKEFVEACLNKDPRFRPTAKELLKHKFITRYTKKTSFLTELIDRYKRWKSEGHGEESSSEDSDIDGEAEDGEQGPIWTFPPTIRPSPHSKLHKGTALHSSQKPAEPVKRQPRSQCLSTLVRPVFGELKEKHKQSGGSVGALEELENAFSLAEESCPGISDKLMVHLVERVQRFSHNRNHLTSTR
The target in series [11] is Calcium/calmodulin-dependent protein kinase type 1D (Homo sapiens) (UniProt Q8IU85). The series is described as follows: Selectivity interaction (KinomeScan (DiscoverX)) EUB0000595a CAMK1D. As to conditions: at 10 µM.
Calcium/calmodulin-dependent protein kinase type 1D (Homo sapiens), sequence (Q8IU85 whole entry, looked up): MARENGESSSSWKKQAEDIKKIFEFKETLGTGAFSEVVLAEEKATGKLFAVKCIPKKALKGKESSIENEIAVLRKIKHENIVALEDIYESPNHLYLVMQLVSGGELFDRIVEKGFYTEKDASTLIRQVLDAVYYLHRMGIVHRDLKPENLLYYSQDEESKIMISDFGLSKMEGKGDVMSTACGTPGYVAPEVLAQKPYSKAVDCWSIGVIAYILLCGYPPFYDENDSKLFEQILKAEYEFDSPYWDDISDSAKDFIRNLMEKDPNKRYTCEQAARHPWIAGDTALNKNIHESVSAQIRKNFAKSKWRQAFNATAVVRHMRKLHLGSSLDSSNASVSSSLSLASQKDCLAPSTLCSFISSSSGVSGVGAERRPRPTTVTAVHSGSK
In series [12] the target is T2, Mitogen-activated protein kinase kinase kinase 5 (Homo sapiens) (UniProt Q99683).
T2 sequence (whole entry): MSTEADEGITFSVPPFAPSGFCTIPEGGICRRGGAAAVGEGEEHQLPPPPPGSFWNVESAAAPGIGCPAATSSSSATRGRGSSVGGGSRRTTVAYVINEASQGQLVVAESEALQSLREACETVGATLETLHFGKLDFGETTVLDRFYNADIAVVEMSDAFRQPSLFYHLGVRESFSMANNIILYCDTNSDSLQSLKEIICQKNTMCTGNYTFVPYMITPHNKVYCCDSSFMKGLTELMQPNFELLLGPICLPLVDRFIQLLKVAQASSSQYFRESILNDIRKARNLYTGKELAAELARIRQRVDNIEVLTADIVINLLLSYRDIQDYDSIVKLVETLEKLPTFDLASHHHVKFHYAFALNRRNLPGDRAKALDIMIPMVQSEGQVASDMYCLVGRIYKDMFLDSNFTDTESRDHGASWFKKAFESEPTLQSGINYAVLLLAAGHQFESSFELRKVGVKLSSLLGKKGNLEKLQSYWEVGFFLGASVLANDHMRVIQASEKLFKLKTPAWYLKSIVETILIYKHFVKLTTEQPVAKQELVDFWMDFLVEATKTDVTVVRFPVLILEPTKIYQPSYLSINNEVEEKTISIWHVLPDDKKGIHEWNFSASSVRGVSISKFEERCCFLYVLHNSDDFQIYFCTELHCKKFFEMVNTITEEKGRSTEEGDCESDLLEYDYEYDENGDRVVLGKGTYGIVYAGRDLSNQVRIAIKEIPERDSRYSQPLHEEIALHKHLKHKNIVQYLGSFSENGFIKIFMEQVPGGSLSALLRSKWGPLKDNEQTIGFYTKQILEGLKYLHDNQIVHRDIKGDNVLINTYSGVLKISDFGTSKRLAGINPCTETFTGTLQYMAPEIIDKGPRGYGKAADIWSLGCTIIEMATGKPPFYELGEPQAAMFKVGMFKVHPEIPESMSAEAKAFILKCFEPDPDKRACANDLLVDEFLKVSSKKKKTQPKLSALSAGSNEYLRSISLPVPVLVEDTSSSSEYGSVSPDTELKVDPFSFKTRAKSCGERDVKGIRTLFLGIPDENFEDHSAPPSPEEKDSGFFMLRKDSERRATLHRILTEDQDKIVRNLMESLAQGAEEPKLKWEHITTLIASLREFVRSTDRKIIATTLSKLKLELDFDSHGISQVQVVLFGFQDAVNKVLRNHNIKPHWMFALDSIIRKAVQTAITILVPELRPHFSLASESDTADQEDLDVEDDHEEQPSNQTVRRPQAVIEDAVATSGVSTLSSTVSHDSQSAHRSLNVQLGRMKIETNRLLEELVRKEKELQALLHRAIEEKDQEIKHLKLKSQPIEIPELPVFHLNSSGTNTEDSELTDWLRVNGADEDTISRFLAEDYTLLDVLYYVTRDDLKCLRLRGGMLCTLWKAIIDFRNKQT
Description: Selectivity interaction (ActivX KiNativ screen (ex vivo kinase selectivity in human PBMCs)) EUB0001619a MAP3K5. The class given is cell-based. The conditions noted are these: PBMC, at 1 µM.

Tyrosine-protein kinase Lck, sequence (P06239 2-509 limits assumed): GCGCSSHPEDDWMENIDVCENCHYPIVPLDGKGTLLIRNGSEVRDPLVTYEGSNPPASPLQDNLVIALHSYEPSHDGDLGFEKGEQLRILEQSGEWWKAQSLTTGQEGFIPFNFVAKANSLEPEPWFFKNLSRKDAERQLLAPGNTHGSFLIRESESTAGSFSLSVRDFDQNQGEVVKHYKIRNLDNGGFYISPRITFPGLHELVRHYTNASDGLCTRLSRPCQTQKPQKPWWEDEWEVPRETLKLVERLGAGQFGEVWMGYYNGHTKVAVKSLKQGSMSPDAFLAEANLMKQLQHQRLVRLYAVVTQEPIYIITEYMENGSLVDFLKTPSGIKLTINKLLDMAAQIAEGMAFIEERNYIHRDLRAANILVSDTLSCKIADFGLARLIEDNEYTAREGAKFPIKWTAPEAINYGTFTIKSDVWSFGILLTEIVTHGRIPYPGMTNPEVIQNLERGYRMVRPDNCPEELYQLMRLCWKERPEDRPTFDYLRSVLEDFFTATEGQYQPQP
Serine/threonine-protein kinase SIK2 (Homo sapiens), sequence (Q9H0K1 whole entry, looked up): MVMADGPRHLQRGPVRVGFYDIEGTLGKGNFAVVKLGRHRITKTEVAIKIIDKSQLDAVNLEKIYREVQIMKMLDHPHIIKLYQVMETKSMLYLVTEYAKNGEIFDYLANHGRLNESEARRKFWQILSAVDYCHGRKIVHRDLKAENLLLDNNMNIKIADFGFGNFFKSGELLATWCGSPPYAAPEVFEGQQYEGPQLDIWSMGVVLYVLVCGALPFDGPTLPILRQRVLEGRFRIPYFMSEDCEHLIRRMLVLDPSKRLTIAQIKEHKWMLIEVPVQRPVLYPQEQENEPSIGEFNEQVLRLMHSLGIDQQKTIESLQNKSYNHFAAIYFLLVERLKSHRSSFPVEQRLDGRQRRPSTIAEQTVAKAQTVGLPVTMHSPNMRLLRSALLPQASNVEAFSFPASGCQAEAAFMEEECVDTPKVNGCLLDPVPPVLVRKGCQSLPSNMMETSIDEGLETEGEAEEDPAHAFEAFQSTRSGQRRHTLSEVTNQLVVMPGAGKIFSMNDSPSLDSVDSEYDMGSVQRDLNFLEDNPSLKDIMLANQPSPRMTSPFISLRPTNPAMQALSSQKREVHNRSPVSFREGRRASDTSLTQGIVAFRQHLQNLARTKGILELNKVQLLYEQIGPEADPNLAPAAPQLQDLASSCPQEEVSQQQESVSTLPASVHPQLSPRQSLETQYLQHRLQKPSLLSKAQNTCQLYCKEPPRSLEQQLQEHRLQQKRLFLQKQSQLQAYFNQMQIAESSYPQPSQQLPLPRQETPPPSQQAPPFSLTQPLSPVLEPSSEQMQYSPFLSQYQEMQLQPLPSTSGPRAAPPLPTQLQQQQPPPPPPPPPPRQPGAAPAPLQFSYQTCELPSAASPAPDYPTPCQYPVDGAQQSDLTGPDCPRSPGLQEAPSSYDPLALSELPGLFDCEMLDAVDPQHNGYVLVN
Serine/threonine-protein kinase/endoribonuclease IRE1 (Homo sapiens), sequence (O75460 19-977 limits assumed): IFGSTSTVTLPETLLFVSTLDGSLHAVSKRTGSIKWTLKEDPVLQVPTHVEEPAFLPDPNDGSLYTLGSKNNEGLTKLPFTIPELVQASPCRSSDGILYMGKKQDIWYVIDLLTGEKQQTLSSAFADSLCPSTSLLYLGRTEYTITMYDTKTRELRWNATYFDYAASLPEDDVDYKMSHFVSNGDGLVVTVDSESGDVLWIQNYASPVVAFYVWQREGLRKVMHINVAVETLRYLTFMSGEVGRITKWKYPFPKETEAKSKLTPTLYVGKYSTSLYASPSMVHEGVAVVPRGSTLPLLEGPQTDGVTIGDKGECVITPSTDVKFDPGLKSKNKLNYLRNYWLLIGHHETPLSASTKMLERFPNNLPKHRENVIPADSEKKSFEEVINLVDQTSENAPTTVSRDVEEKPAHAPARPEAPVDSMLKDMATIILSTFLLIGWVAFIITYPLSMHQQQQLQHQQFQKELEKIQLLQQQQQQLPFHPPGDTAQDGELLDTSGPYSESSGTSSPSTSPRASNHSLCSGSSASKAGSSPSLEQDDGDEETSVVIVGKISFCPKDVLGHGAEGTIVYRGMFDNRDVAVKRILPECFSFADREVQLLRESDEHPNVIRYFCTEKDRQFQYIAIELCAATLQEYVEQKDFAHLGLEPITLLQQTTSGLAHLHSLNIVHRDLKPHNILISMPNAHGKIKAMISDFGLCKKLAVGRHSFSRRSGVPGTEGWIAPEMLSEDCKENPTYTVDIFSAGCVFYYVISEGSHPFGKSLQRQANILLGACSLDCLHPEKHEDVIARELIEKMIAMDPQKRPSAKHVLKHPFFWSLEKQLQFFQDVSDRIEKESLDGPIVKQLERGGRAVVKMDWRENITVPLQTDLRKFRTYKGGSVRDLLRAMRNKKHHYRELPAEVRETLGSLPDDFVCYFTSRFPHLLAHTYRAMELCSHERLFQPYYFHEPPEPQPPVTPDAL

Regarding `C=CC(=O)Nc1cccc(C(=O)Nc2ccc(Nc3cc(-c4[nH]c(SC)nc4C)ccn3)cc2)c1`, the % of control in series [1] (at 1 µM) is 85%; in series [1] (at 5 µM), 89%; in [2] (at 1 µM), 108%; in series [2] (at 5 µM), 90%. In the case of `Nc1cnc(N2CCc3cc(S(=O)(=O)Nc4c(F)cc(Cl)cc4F)cc(N4CCCC4=O)c32)nc1` [TP-020n], the % of control in [3] was determined as 100%. The compound `COc1cc(C(=O)N2CC[C@@H](O)[C@@H](N)C2)cc2nc(-c3cc4ccccc4n3CC3CC3)n(C)c12` showed an XC50 in [4] of 79.4 µM. For the compound `CC(=O)c1cc(-c2ccccc2OCC2CC2)c2ncccn12`, the % of control in [5] was determined as 115%. `O=C(NOC[C@H](O)CO)c1ccc(F)c(F)c1Nc1ccc(I)cc1F`: the % of control in [6] and in series [7] was 100% throughout.

As to `Cn1cc(-n2cnc3c(NCc4nc5cc(Cl)c(Cl)cc5[nH]4)nc(N4CCOCC4)nc32)cn1`, the % of control in series [8] is -2.3%. With `CC[C@@H]1[C@H](F)C(=O)N[C@@H]1COc1nccc2cc(C(N)=O)c(OC)cc12` [ZIMLOVISERTIB], the % of inhibition was 10.4% in [9] (at 0.01 µM); -11.1% in series [9] (at 0.04 µM); 2.6% in series [9] (at 0.2 µM); 7.8% in [9] (at 1 µM); 18.7% in series [9] (at 5 µM).

Consider `COc1cc(N(C)c2ccnc3ccc(C(F)(F)F)cc23)cc(OC)c1OC`, for which the % binding in [10] came out at 88%. As for `COCC(=O)NC/C=C/c1ccc2ncnc(Nc3ccc(Oc4ccc(C)nc4)c(C)c3)c2c1` [CP-724714], the % of control in [11] amounted to 87%. `N#Cc1cccc(-c2c[nH]c3ncnc(N4CCOCC4)c23)c1`: the % of inhibition in series [12] came out at 21%.
